Reference: ChEMBL document CHEMBL1201862, “PubChem BioAssay data set” (2004)
Active and inactive are the calls of the source.

Experiments:
[1] = biological target: T1, Caspase-3 (Homo sapiens, UniProt P42574); type: functional;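 further: Dose-response selectivity test against caspase-3 for candidate inhibitors of sentrin-specific proteases (SENPs)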
T1 sequence (P42574 whole entry): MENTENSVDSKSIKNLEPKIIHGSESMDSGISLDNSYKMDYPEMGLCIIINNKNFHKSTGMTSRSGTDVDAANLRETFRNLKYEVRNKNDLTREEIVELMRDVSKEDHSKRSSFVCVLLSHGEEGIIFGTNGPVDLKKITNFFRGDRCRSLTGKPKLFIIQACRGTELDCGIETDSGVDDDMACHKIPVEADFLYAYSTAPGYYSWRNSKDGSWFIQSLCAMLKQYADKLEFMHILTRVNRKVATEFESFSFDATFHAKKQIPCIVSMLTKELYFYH

[2] = biological target: T2, Sentrin-specific protease 7 (Homo sapiens, UniProt Q9BQF6); type: functional;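 further: Luminescence-based dose-response confirmation of ultra-high-throughput screening hits, measuring inhibition of SENP7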
T2 sequence (Q9BQF6 whole entry): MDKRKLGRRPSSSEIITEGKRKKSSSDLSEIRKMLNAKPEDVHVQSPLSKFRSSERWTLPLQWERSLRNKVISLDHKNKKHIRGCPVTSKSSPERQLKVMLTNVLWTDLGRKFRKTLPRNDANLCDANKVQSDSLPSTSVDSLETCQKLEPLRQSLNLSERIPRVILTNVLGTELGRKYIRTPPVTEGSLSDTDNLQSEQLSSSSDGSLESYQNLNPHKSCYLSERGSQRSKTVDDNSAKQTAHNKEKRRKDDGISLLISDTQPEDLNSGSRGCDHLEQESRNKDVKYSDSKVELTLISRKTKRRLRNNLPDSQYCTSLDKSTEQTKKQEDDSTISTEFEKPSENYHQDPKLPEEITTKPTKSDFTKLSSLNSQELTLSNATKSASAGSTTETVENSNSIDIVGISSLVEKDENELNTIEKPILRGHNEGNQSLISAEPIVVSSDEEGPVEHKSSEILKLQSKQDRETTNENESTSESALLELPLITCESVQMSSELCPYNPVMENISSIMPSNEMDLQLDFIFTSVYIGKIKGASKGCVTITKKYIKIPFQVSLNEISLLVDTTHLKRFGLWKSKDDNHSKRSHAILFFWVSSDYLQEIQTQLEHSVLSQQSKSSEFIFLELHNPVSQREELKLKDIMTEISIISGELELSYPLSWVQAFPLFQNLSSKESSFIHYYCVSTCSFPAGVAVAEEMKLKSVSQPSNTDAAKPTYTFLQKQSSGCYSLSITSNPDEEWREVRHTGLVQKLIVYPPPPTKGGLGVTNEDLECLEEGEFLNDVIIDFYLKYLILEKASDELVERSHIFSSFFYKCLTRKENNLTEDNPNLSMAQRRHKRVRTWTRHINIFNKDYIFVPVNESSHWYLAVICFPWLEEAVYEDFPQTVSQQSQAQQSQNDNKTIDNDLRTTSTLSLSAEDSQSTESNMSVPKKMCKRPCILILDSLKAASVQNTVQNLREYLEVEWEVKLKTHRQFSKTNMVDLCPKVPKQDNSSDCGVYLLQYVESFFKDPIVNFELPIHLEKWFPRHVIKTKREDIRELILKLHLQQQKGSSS

[3] = biological target: T3, Sentrin-specific protease 6 (Homo sapiens, UniProt Q9GZR1); type: functional;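 further: Luminescence-based dose-response confirmatory assay of SENP6 inhibition, following up an ultra-high-throughput screen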
T3 sequence (Q9GZR1 whole entry): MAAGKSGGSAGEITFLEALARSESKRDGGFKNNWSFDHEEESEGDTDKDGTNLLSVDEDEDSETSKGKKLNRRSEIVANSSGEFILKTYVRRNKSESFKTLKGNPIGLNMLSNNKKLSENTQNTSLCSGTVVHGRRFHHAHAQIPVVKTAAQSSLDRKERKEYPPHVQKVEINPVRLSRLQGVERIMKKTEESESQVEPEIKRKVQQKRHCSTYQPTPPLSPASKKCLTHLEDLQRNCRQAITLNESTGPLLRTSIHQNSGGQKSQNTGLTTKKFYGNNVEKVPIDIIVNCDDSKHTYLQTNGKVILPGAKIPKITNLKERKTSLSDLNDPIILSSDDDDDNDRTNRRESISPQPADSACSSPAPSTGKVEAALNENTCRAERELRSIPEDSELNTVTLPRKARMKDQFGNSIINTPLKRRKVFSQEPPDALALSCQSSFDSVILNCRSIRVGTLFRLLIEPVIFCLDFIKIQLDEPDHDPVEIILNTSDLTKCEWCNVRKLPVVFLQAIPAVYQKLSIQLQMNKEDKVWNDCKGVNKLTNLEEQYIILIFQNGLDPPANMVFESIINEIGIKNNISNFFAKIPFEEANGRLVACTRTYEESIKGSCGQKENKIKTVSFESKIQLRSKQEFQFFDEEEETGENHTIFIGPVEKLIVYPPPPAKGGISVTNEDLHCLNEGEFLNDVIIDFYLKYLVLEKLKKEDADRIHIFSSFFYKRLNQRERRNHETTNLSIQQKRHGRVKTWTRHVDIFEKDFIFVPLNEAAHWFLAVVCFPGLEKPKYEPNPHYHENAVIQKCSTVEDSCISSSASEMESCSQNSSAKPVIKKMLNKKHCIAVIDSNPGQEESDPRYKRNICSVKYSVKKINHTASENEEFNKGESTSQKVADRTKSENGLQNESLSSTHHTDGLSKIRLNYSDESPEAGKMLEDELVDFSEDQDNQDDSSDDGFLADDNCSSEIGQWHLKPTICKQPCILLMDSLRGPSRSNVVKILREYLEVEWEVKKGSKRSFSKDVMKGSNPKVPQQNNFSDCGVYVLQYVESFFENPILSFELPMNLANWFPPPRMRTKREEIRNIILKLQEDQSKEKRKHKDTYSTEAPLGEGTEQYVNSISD

[4] = biological target: T4, Sentrin-specific protease 8 (Homo sapiens, UniProt Q96LD8); type: functional;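 further: luminescence read-out of SENP8 inhibition, dose-response confirmation following an ultra-high-throughput screen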
T4 sequence (Q96LD8 whole entry): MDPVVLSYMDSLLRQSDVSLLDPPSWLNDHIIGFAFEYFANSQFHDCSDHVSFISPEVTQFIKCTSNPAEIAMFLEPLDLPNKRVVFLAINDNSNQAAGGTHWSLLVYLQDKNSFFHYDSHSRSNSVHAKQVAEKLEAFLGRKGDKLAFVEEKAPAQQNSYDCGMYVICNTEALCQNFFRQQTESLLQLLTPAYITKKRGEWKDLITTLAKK

[5] = biological target: T5, Protein skinhead-1 (Caenorhabditis elegans, UniProt P34707); type: functional
T5 sequence (P34707 whole entry): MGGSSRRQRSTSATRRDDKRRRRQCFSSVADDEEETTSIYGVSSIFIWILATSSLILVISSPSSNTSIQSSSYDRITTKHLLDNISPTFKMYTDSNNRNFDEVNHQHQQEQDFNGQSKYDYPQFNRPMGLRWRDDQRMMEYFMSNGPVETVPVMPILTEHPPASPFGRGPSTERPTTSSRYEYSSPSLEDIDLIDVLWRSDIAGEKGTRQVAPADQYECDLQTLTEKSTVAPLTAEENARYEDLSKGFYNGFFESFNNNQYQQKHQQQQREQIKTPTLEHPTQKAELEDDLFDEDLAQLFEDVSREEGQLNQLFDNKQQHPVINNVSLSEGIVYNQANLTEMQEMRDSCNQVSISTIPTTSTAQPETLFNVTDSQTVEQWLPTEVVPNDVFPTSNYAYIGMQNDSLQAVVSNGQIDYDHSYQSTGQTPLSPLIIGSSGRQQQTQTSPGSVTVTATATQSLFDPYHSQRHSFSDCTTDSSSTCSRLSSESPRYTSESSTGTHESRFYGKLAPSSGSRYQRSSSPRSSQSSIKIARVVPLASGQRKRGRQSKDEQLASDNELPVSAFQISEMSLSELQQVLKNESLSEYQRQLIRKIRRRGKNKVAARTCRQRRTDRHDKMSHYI

[6] = cells; type: functional
[7] = biological target: T6, Ubiquitin-conjugating enzyme E2 N (Homo sapiens, UniProt P61088); type: functional;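 further: Dose-response confirmation in a TR-FRET assay detecting UBC13-driven polyubiquitin chain formation, inhibition measured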
T6 sequence (P61088 whole entry): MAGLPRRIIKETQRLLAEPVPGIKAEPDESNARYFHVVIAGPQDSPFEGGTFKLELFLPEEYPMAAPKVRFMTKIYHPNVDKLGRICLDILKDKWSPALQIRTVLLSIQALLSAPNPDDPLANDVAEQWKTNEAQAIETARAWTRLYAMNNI

[8] = NIH-3T3 fibroblast cytotoxicity, dose response, cytotoxicity control, cell-based, fluorescence, Alamar Blue, secondary assay (AID 2327); type: functional;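 further: NIH-3T3 mouse fibroblasts cultured with fluconazole at 8 µg/mL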
[9] = biological target: Cytochrome P450 2D6 (Homo sapiens, UniProt P10635);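 further: CYP2D6 member of a cytochrome P450 panel assay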
[10] = C. albicans growth with fluconazole, confirmation, fluorescence, retest (AID 2467); type: functional, cell-based
[11] = cytotoxicity toward NIH3T3 fibroblasts, dose response, counter-screen, cell-based, ATP luminescence, mouse fibroblasts (AID 2010); type: functional;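 further: cells exposed to compound for about 90 hours before reading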
[12] = inhibitors of intracellular T. cruzi replication, confirmation, NIH3T3 host cells, beta-gal luminescence (AID 2044); type: functional, cell-based;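 further: intracellular parasites grown in NIH/3T3 mouse fibroblasts as host cells; luminescent beta-galactosidase reporter signal from transgenic T. cruzi replicating inside host cells; inhibitors lower the luminescence signal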

Sequence of Cytochrome P450 2D6 (P10635 whole entry): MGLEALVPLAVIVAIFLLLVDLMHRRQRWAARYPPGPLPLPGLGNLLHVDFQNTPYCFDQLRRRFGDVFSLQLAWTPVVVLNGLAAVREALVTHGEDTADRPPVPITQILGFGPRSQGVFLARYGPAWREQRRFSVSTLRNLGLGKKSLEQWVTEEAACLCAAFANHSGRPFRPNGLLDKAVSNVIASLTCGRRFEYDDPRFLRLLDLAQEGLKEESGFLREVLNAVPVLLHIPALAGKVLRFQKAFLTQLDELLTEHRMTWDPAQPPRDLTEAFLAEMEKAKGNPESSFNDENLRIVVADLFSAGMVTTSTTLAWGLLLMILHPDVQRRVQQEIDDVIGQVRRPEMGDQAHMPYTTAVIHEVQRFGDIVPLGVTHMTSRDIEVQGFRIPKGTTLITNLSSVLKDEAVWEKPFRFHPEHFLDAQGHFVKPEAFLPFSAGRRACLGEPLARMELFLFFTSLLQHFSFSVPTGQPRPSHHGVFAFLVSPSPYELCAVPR

SMILES	IC50 [1]	IC50 [2]	IC50 [3]	IC50 [4]	further results
O=C(Nc1ccccc1)Nc1ccccc1C(=O)NCc1ccccc1	39.4 µM (active)	6.13 µM (active)	> 100 µM (inactive)	> 100 µM (inactive)	–
Cc1ccc(CN2CCC(n3nccc3NC(=O)c3ccccc3C)CC2)o1	–	–	–	–	IC50 [5]: > 100 µM (inactive)
COc1ccc(C(=O)COC(=O)c2ccccc2O)c(OC)c1	27.6 µM (active)	8.26 µM (active)	13.8 µM (active)	53.1 µM (active)	IC50 [6]: 36.9 µM (active)
Brc1c(-c2ccccc2)nc2n1Cc1ccccc1-2	15 µM (active)	5.23 µM (active)	6.75 µM (active)	7.57 µM (active)	–
Cc1nc(N)sc1C(=O)OCC(C)C	–	–	–	–	IC50 [7]: > 20 µM (inactive)
Cc1ccc(NC(=O)c2cc(-c3ccco3)on2)cc1C	–	–	–	–	IC50 [5]: > 100 µM (inactive)
O=C(OCc1ccccc1Cl)c1cccnc1Cl	23.5 µM (active)	11.8 µM (active)	36.6 µM (active)	27.3 µM (active)	–
C=CCn1c(SCc2ccc(C(=O)Nc3ccccc3)cc2)nnc1-c1ccccc1	–	–	–	–	EC50 [8]: > 160 µM (inactive); AC50 [9]: 22.4 µM (inconclusive); EC50 [10]: > 38 µM (not active)
Cc1ccc(C(C(=O)NCC2CCCO2)N(C(=O)c2snc(C(N)=O)c2N)c2ccc(C(C)C)cc2)o1 (configuration not stated)	–	–	–	–	IC50 [7]: > 20 µM (inactive)
CCOC(=O)/C(C#N)=C/c1ccc(N2CCCCC2)cc1	23.4 µM (active)	7.1 µM (active)	41.4 µM (active)	31.6 µM (active)	–
COc1ccc(-n2nc(C(=O)NCc3cc(OC)ccc3OC)c3c4ccccc4n(C)c3c2=O)cc1	–	–	–	–	IC50 [7]: > 20 µM (inactive)
N#Cc1cnn(-c2nc(O)c3c4c(sc3n2)CCCC4)c1N	–	–	–	–	EC50 [8]: 16.9 µM (active); EC50 [10]: 0.131 µM (active)
COC(=O)C1CCN(C(=O)CN(C)Cc2ccc(C(C)(C)C)cc2)CC1	–	–	–	–	EC50 [8]: > 150 µM (inactive); EC50 [10]: 1.43 µM (inconclusive); EC50 [11]: > 60 µM (not active); EC50 [12]: 0.513 µM (active)
COc1cccc(NC(=O)CN(C)C(=O)c2cccnc2Nc2cccc(C(F)(F)F)c2)c1	–	–	–	–	IC50 [7]: > 20 µM (inactive)
c1ccc2c(C[C@@H]3CNCCN3CCCCC3CCCCC3)cccc2c1	–	–	–	–	IC50 [7]: > 20 µM (inactive)
Clc1ccccc1/C=C/c1ccnc2ccccc12	–	–	–	–	IC50 [5]: 67.2 µM (inactive)
CCOC(=O)Nc1cccc2c1-c1ccc([N+](=O)[O-])cc1C2=O	–	–	–	–	IC50 [5]: > 100 µM (inactive)
Cc1nc2c(C(=O)NCCC(C)C)cnn2c(O)c1Cc1ccccc1F	–	–	–	–	EC50 [8]: > 150 µM (inactive); EC50 [10]: 4.22 µM (active)
CC/C(C)=N/Nc1cccc([N+](=O)[O-])c1	–	–	–	–	EC50 [8]: 19.8 µM (active); EC50 [10]: > 38 µM (not active)
Clc1cccc(-c2ccc(-c3nc4ccccn4c3NCc3ccccc3)cc2)c1	12.9 µM (active)	7.22 µM (active)	9.6 µM (active)	18 µM (active)	–
